Data set [1] deals with Egl nine homolog 1 (Homo sapiens, UniProt Q9GZT9). Nature of the data set: Inhibition of recombinant human PHD2 by alphascreen assay.
Data set [2] has as its target T1, Prolyl 4-hydroxylase (Paramecium bursaria Chlorella virus 1, UniProt Q84406).
T1 sequence (Q84406 whole entry): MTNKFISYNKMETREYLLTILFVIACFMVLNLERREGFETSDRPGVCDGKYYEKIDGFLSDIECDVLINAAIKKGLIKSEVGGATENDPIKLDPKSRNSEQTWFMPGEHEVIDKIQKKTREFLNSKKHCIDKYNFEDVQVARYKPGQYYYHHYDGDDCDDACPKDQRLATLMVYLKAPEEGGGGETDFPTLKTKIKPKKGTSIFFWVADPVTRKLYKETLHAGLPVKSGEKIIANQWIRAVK
Nature of the data set: Inhibition of N-terminal His6-tagged recombinant Paramecium bursaria chlorella virus 1 CPH expressed in Escherichia coli Rosetta 2 (DE3) cells pre-incubated for 5 mins before 2OG as substrate and Fe2 as co-factor addition in presence of L-ascorbate and measured after 5 mins MALDI TOF MS analysis.

Data set [3] has as its target T2, Prolyl 4-hydroxylase (Paramecium bursaria Chlorella virus 1) (UniProt Q84406).
T2 sequence (whole entry): T1 sequence (Q84406 whole entry)
Nature of the data set: Substrate activity at N-terminal His6-tagged recombinant Paramecium bursaria chlorella virus 1 CPH expressed in Escherichia coli Rosetta 2 (DE3) cells assessed as succinate production at 500 uM incubated for 60 s in presence of 2OG and in absence of L-ascorbate and using Fe2 as cofactor by 1H NMR spectroscopy.

Data set [4] addresses T2, Prolyl 4-hydroxylase (Paramecium bursaria Chlorella virus 1). Description: Substrate activity at N-terminal His6-tagged recombinant Paramecium bursaria chlorella virus 1 CPH expressed in Escherichia coli Rosetta 2 (DE3) cells assessed as succinate production at 500 uM incubated for 60 s in presence of 2OG and L-ascorbate and using Fe2 as cofactor by 1H NMR spectroscopy.

Data set [5] has the same target. Description: Substrate activity at N-terminal His6-tagged recombinant Paramecium bursaria chlorella virus 1 CPH expressed in Escherichia coli Rosetta 2 (DE3) cells assessed as substrate hydroxylation up to 1 mM incubated for 16 hrs in presence of 2OG by MALDI TOF MS analysis.
Data set [6] has the same target. Nature of the data set: Substrate activity at N-terminal His6-tagged recombinant Paramecium bursaria chlorella virus 1 CPH expressed in Escherichia coli Rosetta 2 (DE3) cells assessed as substrate hydroxylation at 100 uM incubated for 16 hrs in presence of 2OG by MALDI TOF MS analysis.
The target in data set [7] is Hypoxia-inducible factor 1-alpha inhibitor (Homo sapiens, UniProt Q9NWT6). Description: Inhibition of recombinant human FIH using 2OG as substrate and Fe2 as co-factor assessed as hydroxylation incubated for 15 mins in presence of L-ascorbate by LC-MS analysis.
The target in data set [8] is T3, Prolyl 3-hydroxylase OGFOD1 (Homo sapiens, UniProt Q8N543).
T3 sequence (Q8N543 whole entry): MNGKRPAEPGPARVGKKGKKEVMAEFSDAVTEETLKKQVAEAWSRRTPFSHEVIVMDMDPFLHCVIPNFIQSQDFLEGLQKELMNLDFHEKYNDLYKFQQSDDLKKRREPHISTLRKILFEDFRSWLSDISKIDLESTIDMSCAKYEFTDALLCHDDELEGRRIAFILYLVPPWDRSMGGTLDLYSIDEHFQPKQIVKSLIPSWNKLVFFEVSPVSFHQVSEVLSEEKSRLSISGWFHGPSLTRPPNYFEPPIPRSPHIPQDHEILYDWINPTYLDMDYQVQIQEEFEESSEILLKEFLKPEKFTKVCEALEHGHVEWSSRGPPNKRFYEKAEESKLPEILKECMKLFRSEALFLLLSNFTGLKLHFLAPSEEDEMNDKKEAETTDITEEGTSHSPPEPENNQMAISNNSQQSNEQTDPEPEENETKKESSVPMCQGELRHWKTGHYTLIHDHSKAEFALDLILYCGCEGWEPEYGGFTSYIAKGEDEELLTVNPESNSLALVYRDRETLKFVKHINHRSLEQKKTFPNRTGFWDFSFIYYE
Description: Inhibition of recombinant human OGFOD1 using 2OG as substrate and Fe2 as co-factor assessed as hydroxylation incubated for 15 mins in presence of L-ascorbate by MALDI-TOF MS analysis.

Data set [9] has as its target T2, Prolyl 4-hydroxylase (Paramecium bursaria Chlorella virus 1). Description: Substrate activity at N-terminal His6-tagged recombinant Paramecium bursaria chlorella virus 1 CPH expressed in Escherichia coli Rosetta 2 (DE3) cells assessed as substrate hydroxylation incubated for 16 hrs in presence of 2OG and in absence of L-ascorbate by MALDI TOF MS analysis.
Data set [10] has the same target. Nature of the data set: Substrate activity at N-terminal His6-tagged recombinant Paramecium bursaria chlorella virus 1 CPH expressed in Escherichia coli Rosetta 2 (DE3) cells assessed as succinate production at 500 uM incubated for 60 s in presence of 2OG and using Fe2 as cofactor by 1H NMR spectroscopy.
Compound in data set [11]: C[C@H](NC(=O)[C@@H]1CCCN1)C(=O)N1CCC[C@H]1C(=O)N[C@@H](CCCCN)C(=O)N1C[C@H](O)C[C@H]1C(=O)N[C@@H](C)C(=O)N1CCC[C@H]1C(=O)N[C@@H](CCCCN)C(=O)O
Description: Substrate activity at N-terminal His6-tagged recombinant Paramecium bursaria chlorella virus 1 CPH expressed in Escherichia coli Rosetta 2 (DE3) cells assessed as substrate Km incubated for 16 hrs in presence of 2OG by MALDI TOF MS analysis.

Compound in data set [12]: C[C@H](NC(=O)[C@@H]1CCCN1)C(=O)N1CCC[C@H]1C(=O)N[C@@H](CCCCN)C(=O)N1C[C@H](O)C[C@H]1C(=O)N[C@@H](C)C(=O)N1CCC[C@H]1C(=O)N[C@@H](CCCCN)C(=O)O
Description: Substrate activity at N-terminal His6-tagged recombinant Paramecium bursaria chlorella virus 1 CPH expressed in Escherichia coli Rosetta 2 (DE3) cells assessed as substrate Kcat incubated for 16 hrs in presence of 2OG by MALDI TOF MS analysis.

Compound in data set [13]: C[C@H](NC(=O)[C@@H]1CCCN1)C(=O)N1CCC[C@H]1C(=O)N[C@@H](CCCCN)C(=O)N1C[C@H](O)C[C@H]1C(=O)N[C@@H](C)C(=O)N1CCC[C@H]1C(=O)N[C@@H](CCCCN)C(=O)O
Nature of the data set: (§1) Substrate activity at N-terminal His6-tagged recombinant Paramecium bursaria chlorella virus 1 CPH expressed in Escherichia coli Rosetta 2 (DE3) cells assessed as Km(app) for Fe2 incubated for 16 hrs in presence of 2OG and Fe2 by MALDI TOF MS analysis.

Compound in data set [14]: C[C@H](NC(=O)[C@@H]1CCCN1)C(=O)N1C[C@H](O)C[C@H]1C(=O)N[C@@H](CCCCN)C(=O)N1CCC[C@H]1C(=O)N[C@@H](C)C(=O)N1CCC[C@H]1C(=O)N[C@@H](CCCCN)C(=O)O
The data set is described as §1.

Compound in data set [15]: C[C@H](NC(=O)[C@@H]1CCCN1)C(=O)N1CCC[C@H]1C(=O)N[C@@H](CCCCN)C(=O)N1C[C@H](O)C[C@H]1C(=O)N[C@@H](C)C(=O)N1CCC[C@H]1C(=O)N[C@@H](CCCCN)C(=O)O
Nature of the data set: (§2) Substrate activity at N-terminal His6-tagged recombinant Paramecium bursaria chlorella virus 1 CPH expressed in Escherichia coli Rosetta 2 (DE3) cells assessed as Km for 2OG incubated for 16 hrs in presence of 2OG and Fe2 by MALDI TOF MS analysis.

Compound in data set [16]: C[C@H](NC(=O)[C@@H]1CCCN1)C(=O)N1C[C@H](O)C[C@H]1C(=O)N[C@@H](CCCCN)C(=O)N1CCC[C@H]1C(=O)N[C@@H](C)C(=O)N1CCC[C@H]1C(=O)N[C@@H](CCCCN)C(=O)O
The data set is described as §2.

Compound in data set [17]: C[C@H](NC(=O)[C@@H]1CCCN1)C(=O)N1CCC[C@H]1C(=O)N[C@@H](CCCCN)C(=O)N1C[C@H](O)C[C@H]1C(=O)N[C@@H](C)C(=O)N1CCC[C@H]1C(=O)N[C@@H](CCCCN)C(=O)O
Description: (§3) Substrate activity at N-terminal His6-tagged recombinant Paramecium bursaria chlorella virus 1 CPH expressed in Escherichia coli Rosetta 2 (DE3) cells assessed as Km(app) for ascorbate incubated for 16 hrs in presence of ascorbate, 2OG and Fe2 by MALDI TOF MS analysis.

Compound in data set [18]: C[C@H](NC(=O)[C@@H]1CCCN1)C(=O)N1C[C@H](O)C[C@H]1C(=O)N[C@@H](CCCCN)C(=O)N1CCC[C@H]1C(=O)N[C@@H](C)C(=O)N1CCC[C@H]1C(=O)N[C@@H](CCCCN)C(=O)O
Described as §3.

Activity calls are given as the source filed them. The rule behind the calls is not given here. Where a SMILES comes first, the peptide text is derived from it. [ ]: non-standard residue; d: D form. Hyp = O=C(O)[C@@H]1C[C@@H](O)CN1 Where only a bound is given, the exact number is not on record here.

Sequence of Hypoxia-inducible factor 1-alpha inhibitor (Q9NWT6 whole entry): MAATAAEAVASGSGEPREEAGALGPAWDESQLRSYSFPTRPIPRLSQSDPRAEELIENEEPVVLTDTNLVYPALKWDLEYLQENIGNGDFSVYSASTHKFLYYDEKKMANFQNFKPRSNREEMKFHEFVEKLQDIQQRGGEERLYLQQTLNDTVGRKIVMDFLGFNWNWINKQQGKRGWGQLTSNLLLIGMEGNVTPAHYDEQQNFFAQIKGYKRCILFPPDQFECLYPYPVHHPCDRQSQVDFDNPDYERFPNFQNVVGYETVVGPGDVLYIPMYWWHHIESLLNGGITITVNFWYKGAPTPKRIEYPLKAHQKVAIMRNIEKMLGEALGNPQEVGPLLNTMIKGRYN
Sequence of Egl nine homolog 1 (Q9GZT9 whole entry): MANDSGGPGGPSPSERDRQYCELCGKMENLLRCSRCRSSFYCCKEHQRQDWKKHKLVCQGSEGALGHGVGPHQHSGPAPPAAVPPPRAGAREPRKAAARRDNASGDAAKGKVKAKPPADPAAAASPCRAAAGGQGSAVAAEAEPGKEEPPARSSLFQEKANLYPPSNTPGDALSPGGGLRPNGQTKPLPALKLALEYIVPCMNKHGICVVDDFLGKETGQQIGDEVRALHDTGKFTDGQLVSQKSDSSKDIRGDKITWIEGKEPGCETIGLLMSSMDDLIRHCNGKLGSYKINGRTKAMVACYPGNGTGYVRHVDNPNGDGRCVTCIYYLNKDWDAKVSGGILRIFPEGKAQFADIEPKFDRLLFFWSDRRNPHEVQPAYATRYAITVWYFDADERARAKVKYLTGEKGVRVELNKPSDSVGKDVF

A word on the IC50: it is the point on the concentration scale where inhibition reaches its midpoint. For `O=C(O)CNC(=O)c1c(O)c2ccccc2n(Cc2ccccc2)c1=O`, the figures for the IC50 in data set [1] and in data set [2] were 22 nM and 8.5 µM, respectively.
With `C[C@H](NC(=O)[C@@H]1CCCN1)C(=O)N1CCC[C@H]1C(=O)N[C@@H](CCCCN)C(=O)N1C[C@H](O)C[C@H]1C(=O)N[C@@H](C)C(=O)N1CCC[C@H]1C(=O)N[C@@H](CCCCN)C(=O)O` (H-PAPK[Hyp]APK-OH), the result in data set [3] and in data set [4] was Active.
`C[C@H](NC(=O)[C@@H]1CCCN1)C(=O)N1C[C@H](O)C[C@H]1C(=O)N[C@@H](CCCCN)C(=O)N1CCC[C@H]1C(=O)N[C@@H](C)C(=O)N1CCC[C@H]1C(=O)N[C@@H](CCCCN)C(=O)O` (H-PA[Hyp]KPAPK-OH): the result in data set [5], in [3] and in data set [6] was inactive. For the same molecule, the result in [4] was Active.
As usually defined, the Ki is a measure of affinity in units of concentration, obtained from inhibition or displacement. In the case of `O=c1c(-n2ccnn2)c[nH]n1-c1cc(N2CCOCC2)ncn1` [MOLIDUSTAT], the results for the IC50 in data set [7], in data set [8] and in [2] were 31 µM, less than 1000 nM and 26.8 µM, respectively. Also, the Ki in data set [2] was 16.1 µM.
As for `Cc1nc(C(=O)NCC(=O)O)c(O)c2ccc(Oc3ccccc3)cc12` [ROXADUSTAT], the IC50 was greater than 100 µM in [7], less than 1000 nM in data set [8] and 5 µM in [2]. In addition, in [2], the Ki was 1.07 µM.
With H-PAPKPAPK-OH, in data set [9], the outcome was inactive. Besides, the outcome in data set [10] was Active.

B1: Prolyl 4-hydroxylase (Paramecium bursaria Chlorella virus 1), Q84406 (protein)
chain: T1 sequence (Q84406 whole entry)
For orientation: Km means the concentration of substrate that gives half-maximal velocity. A word on the kcat: it is the number of substrate molecules converted per active site and unit of time at saturation. Consider B1, for which the Km is 230 µM in data set [11]; 1.1 µM in data set [13]; 0.9 µM in data set [14]; 27.4 µM in data set [15]; 29.5 µM in [16]; 13.8 µM in [17]. Moreover, the Km in [18] amounted to 1.7 µM. In [12], the kcat stood at 52.1 s⁻¹.
